Assay results from patent US20240091366A1, “NOVEL ACID-SENSITIVE APTAMER TRIPTOLIDE CONJUGATE AND APPLICATIONS” (priority 2022, published 2024).
Where “and” joins values, the source holds several entries; their conditions need not be identical. Equal entries are not always repeated.

Legend:
Experiment in all cases: MTT assay, cell proliferation inhibition
Format in all cases: cell-based
Conditions in all cases: for cell proliferation inhibition rate: 48 h, samples 1-3
[1] = system: lung adenocarcinoma cell line A549
Text: (§1) Material: aptamer triptolide conjugate (AS1411-TP). Triptolide (TP) was provided by Shanghai Yaji Biotechnology Co. Ltd; aptamer (AS1411) was obtained from Chengdu Pilot Drug Development Co. Ltd; trypsin, thiazolyl blue (MTT) (Biofroxx, Germany); dimethyl sulfoxide (DMSO) (MP Biomedicals, France); fetal bovine serum (FBS) (Newzerum, New Zealand); DMEM medium, RPMI1640 medium, Petri dishes, 96-well plates (Corning, USA); colon cancer cells HCT116, breast cancer cells MDA-MB-231, non-small-cell lung cancer cells A549, pancreatic cancer cells PANC-1, and hepatocellular carcinoma cells HepG2 were purchased from the Shanghai Cell Bank of the Chinese Academy of Sciences and preserved in the laboratory.
(§2) Take the tumor cells HCT116, MDA-MB-231, A549, PANC-1 and HepG2 cell lines from the liquid nitrogen tank, place them in a 37° C. water bath, wait for the frozen cells to melt into cell suspension, centrifuge the cells at 1000 r/min for 3 min, discard the supernatant, add 1 ml of fresh complete medium containing 10% fetal bovine serum and 1% double antibody to mix the cells, then add 5 ml of medium, gently and repeatedly blowing the cells with a pipette gun to make them mix well. Then add 5 ml of medium, blow the cells gently and repeatedly with a pipette gun to mix them well, and finally transfer the cell suspension to a […] and label the cell name, cell number, date of resuscitation and the operator's name, and place it in a cell culture incubator for cultivation. (HCT116, PANC-1 and HepG2 cell lines were cultured in DMEM medium, while MDA-MB-231 cell line and A549 cell line were cultured in RPMI1640 medium).
(§3) Take HCT116, MDA-MB-231, A549, PANC-1, HepG2 cells with good growth status, remove the medium, add 1 ml of sterile PBS to wash, add 1.5 ml of trypsin to digest the cells, about 2 min later the cells become round and fall off, add 1.5 ml of medium to terminate the digestion, transfer it to centrifugal tube, centrifuge at 1000 r/min for 3 min, discard the supernatant, add 1 ml of fresh medium to resuspend, then add fresh medium for 1:3 distribution to other culture dishes, and label the date of transmission and the number of generations. Place in the cell culture incubator for cultivation.
(§4) Take HCT116, MDA-MB-231, A549, PANC-1, HepG2 cells with good growth status, by the same operation as the cell passaging experiment, after cell resuspension, cell counting with hemocyte counting plate, with 2500 cells/well, plant in 96-well plate, after 24 h of cell culture, remove the original medium, add medium containing different concentrations of drugs and continue to cultivate for 48 hours. After 24 h of cell culture, the original medium was removed and the medium containing different concentrations of drugs was added to continue the culture for 48 hours. […] The above steps were repeated three times.

[2] = system: colon cancer cell line HCT116
Text: as §1, §2, §3, §4

[3] = system: pancreatic cancer cell line PANC-1
Text: as §1, §2, §3, §4

[4] = system: hepatocellular carcinoma cell line HepG2
Text: as §1, §2, §3, §4

[5] = system: breast cancer cell line MDA-MB-231
Text: as §1, §2, §3, §4

AS1411: nucleolin aptamer, single-stranded oligonucleotide, SEQ ID NO: 1 GGTGGTGGTGGTTGTGGTGGTGGTGG
cell proliferation inhibition rate ([1]; A549, 12.5 nM, 0.0125 µM): 5.5843 and 7.7330 and 4.4586
cell proliferation inhibition rate ([1]; A549, 25.0 nM, 0.025 µM): 6.8129 and 6.6467 and 6.1306
cell proliferation inhibition rate ([1]; A549, 50.0 nM, 0.05 µM): 9.0069 and 8.0722 and 7.6624
cell proliferation inhibition rate ([1]; A549, 100.0 nM, 0.1 µM): 11.4727 and 11.8492 and 10.6369
cell proliferation inhibition rate ([1]; A549, 200.0 nM, 0.2 µM): 14.5704 and 11.4171 and 14.3285
inhibitory effect on tumor cell ([1]; A549, at the experimental concentration): did not have any significant inhibitory effect
cell proliferation inhibition rate ([2]; HCT116, 6.3 nM, 0.0063 µM): 2.9669 and 1.6683 and 3.1584
cell proliferation inhibition rate ([2]; HCT116, 12.5 nM, 0.0125 µM): 4.1987 and 3.0229 and 2.5102
cell proliferation inhibition rate ([2]; HCT116, 25.0 nM, 0.025 µM): 5.4987 and 6.2971 and 5.6986
cell proliferation inhibition rate ([2]; HCT116, 50.0 nM, 0.05 µM): 6.5424 and 6.5952 and 5.0330
cell proliferation inhibition rate ([2]; HCT116, 100.0 nM, 0.1 µM): 10.6504 and 12.1637 and 10.9076
cell proliferation inhibition rate ([2]; HCT116, 200.0 nM, 0.2 µM): 16.9608 and 13.5881 and 14.2937
inhibitory effect on tumor cell ([2]; HCT116, at the experimental concentration): did not have any significant inhibitory effect
cell proliferation inhibition rate ([3]; PANC-1, 12.5 nM, 0.0125 µM): 3.6656 and 3.5639 and 3.6148
cell proliferation inhibition rate ([3]; PANC-1, 25.0 nM, 0.025 µM): 3.0417 and 4.2455 and 4.1946
cell proliferation inhibition rate ([3]; PANC-1, 50.0 nM, 0.05 µM): 7.2954 and 7.9552 and 9.6253
cell proliferation inhibition rate ([3]; PANC-1, 100.0 nM, 0.1 µM): 8.3147 and 7.1285 and 8.7216
cell proliferation inhibition rate ([3]; PANC-1, 200.0 nM, 0.2 µM): 9.6236 and 10.2679 and 9.9457
inhibitory effect on tumor cell ([3]; PANC-1, at the experimental concentration): did not have any significant inhibitory effect
cell proliferation inhibition rate ([4]; HepG2, 3.1 nM, 0.0031 µM): 2.0417 and 2.2455 and 2.1946
cell proliferation inhibition rate ([4]; HepG2, 12.5 nM, 0.0125 µM): 3.5280 and 2.4483 and 3.6148
cell proliferation inhibition rate ([4]; HepG2, 25.0 nM, 0.025 µM): 4.1258 and 3.9268 and 4.1946
cell proliferation inhibition rate ([4]; HepG2, 50.0 nM, 0.05 µM): 8.4300 and 6.9712 and 9.6253
cell proliferation inhibition rate ([4]; HepG2, 100.0 nM, 0.1 µM): 7.2906 and 11.7328 and 8.7216
cell proliferation inhibition rate ([4]; HepG2, 200.0 nM, 0.2 µM): 10.3764 and 15.8325 and 9.9457
inhibitory effect on tumor cell ([4]; HepG2, at the experimental concentration): did not have any significant inhibitory effect
cell proliferation inhibition rate ([5]; MDA-MB-231, 3.1 nM, 0.0031 µM): 2.2910 and 2.1209 and 2.5159
cell proliferation inhibition rate ([5]; MDA-MB-231, 6.3 nM, 0.0063 µM): 3.2333 and 4.9611 and 4.2994
cell proliferation inhibition rate ([5]; MDA-MB-231, 25.0 nM, 0.025 µM): 5.5843 and 7.7330 and 4.4586
cell proliferation inhibition rate ([5]; MDA-MB-231, 50.0 nM, 0.05 µM): 6.8129 and 6.6467 and 6.1306
cell proliferation inhibition rate ([5]; MDA-MB-231, 100.0 nM, 0.1 µM): 9.0069 and 8.0722 and 8.6624
cell proliferation inhibition rate ([5]; MDA-MB-231, 200.0 nM, 0.2 µM): 14.4727 and 11.8492 and 10.6369
inhibitory effect on tumor cell ([5]; MDA-MB-231, at the experimental concentration): did not have any significant inhibitory effect
